Test results: patent publication US7501428B2, “Quinazoline thiazolinones” (Hoffmann-La Roche Inc., priority 2004, dated 2009)

The compounds below were run against T1, recombinant human CDK1/Cyclin B complex (Homo sapiens, UniProt P06493) (assay: CDK1/Cyclin B kinase assay (FlashPlate or HTRF)). Details: Rb protein substrate, Ki=IC50/(1+[S]/Km).
T1 construct: made in house; host or cells: High Five insect cells (baculovirus) for CDK1/GST-cyclin B; M15 E. coli for the Rb substrate
Format: biochemical
Method: To determine inhibition of CDK1 activity, either FlashPlate™ (NEN™-Life Science Products) assay or HTRF assay was performed. Both types of kinase assays were carried out using recombinant human CDK1/Cyclin B complex. GST-cyclinB (GST-cycB) and CDK1 cDNA clones in baculovirus vectors were provided by Dr. W. Harper at the Baylor College of Medicine, Houston, Tex. Proteins were co-expressed in High Five™ insect cells and the complex was purified on glutathione Sepharose resin (Pharmacia, Piscataway, N.J.) as previously described (Harper, J. W. et al. Cell 1993, 75, 805-816). A 6×-Histidine tagged truncated form of retinoblastoma (Rb) protein (amino acid 386-928) was used as the substrate for the CDK1/Cyclin B assay (the expression plasmid was provided by Dr. Veronica Sullivan, Department of Molecular Virology, Roche Research Centre, Welwyn Garden City, United Kingdom). The Rb protein is a natural substrate for phosphorylation by CDK1 (see Herwig and Strauss Eur. J. Biochem. Vol. 246 (1997) pp. 581-601 and the references cited therein). The expression of the 62Kd protein was under the control of an IPTG inducible promoter in an M15 E. coli strain. Cells were lysed by sonication and purification was carried out by binding lysates at pH 8.0 to a Ni-chelated agarose column pretreated with 1 mM imidazole. The resin was then washed several times with incrementally decreasing pH buffers to pH 6.0, and eluted with 500 mM imidazole. Eluted protein was dialyzed against 20 mM HEPES pH 7.5, 30% glycerol, 200 mM NaCl, and 1 mM DTT. Purified Rb fusion protein stocks were quantitated for protein concentration, aliquoted, and stored at −70° C.
For the FlashPlate kinase assay, 96-well FlashPlates were coated with Rb protein at 10 μg/ml, using 100 μl per well. Plates were incubated at 4° C. overnight or at room temperature for 3 hours on a shaker. […] Plates were washed four times with the wash buffer, sealed, and counted on the TopCount scintillation counter (Packard Instrument Co., Downers Grove, Ill.]. The percent inhibition of Rb phosphorylation, which is a measure of the inhibition of CDK activity, was determined according to the following formula:
[formula] where “test compound” refers to the average counts per minute of the test duplicates, “nonspecific” refers to the average counts per minute when no CDK1/Cyclin B, etc., was added, and “total” refers to the average counts per minute when no compound was added. […] The value of the inhibitor constant Ki is calculated by the following: Ki=IC50/(1+[S]/Km), where [S] is the ATP concentration and Km is Michaelis constant.
The Homogeneous Time Resolved Fluorescence (HTRF) kinase assay was carried out in 96-well polypropylene plates (BD Biosciences, Bedford, Mass.). […]

T1 sequence (P06493 whole entry): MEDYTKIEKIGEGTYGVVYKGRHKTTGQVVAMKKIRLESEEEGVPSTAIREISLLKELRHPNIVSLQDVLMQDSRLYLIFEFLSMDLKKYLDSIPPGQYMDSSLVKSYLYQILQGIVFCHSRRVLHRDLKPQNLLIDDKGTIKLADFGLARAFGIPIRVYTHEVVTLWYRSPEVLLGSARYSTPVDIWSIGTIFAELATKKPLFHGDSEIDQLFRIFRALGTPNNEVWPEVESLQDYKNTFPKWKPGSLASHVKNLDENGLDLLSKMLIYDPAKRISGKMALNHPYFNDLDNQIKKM
T1 sequence (P14635 whole entry partner): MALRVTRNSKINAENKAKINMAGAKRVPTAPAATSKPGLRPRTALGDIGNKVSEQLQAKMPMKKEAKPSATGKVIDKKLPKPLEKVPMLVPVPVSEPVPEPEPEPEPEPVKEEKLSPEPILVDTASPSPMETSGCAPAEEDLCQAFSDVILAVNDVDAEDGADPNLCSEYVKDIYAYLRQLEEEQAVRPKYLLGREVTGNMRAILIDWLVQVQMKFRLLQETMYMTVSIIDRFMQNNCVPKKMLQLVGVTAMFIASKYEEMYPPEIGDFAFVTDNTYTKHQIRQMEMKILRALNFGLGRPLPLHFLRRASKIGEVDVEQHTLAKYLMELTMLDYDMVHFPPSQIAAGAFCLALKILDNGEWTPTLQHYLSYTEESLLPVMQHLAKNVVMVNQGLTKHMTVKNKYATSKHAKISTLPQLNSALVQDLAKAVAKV

Ki | SMILES
1.84 µM | COc1cc(F)ccc1NC1=NC(=O)/C(=C/c2ccc3ncncc3c2)S1 [Example 5, 2-(4-Fluoro-2-methoxy-phenylamino)-5-[1-quinazolin-6-yl-meth-(Z)-ylidene]-thiazol-4-one]
1.22 µM | O=C1N=C(NCc2cccs2)S/C1=C\c1ccc2ncncc2c1 [Example 1, 5-[1-Quinazolin-6-yl-meth-(Z)-ylidene]-2-[(thiophen-2-ylmethyl)-amino]-thiazol-4-one]
1.11 µM | O=C1N=C(N[C@@H](CO)Cc2ccccc2)S/C1=C\c1ccc2ncncc2c1 [Example 7, 2-((R)-1-Hydroxymethyl-2-phenyl-ethylamino)-5-[1-quinazolin-6-yl-meth-(Z)-ylidene]-thiazol-4-one]
0.881 µM | O=C1N=C(NCCc2cccc(F)c2)S/C1=C\c1ccc2ncncc2c1 [Example 3, 2-[2-(3-Fluoro-phenyl)-ethylamino]-5-[1-quinazolin-6-yl-meth-(Z)-ylidene]-thiazol-4-one]
